Target: T1, Human PXR (Homo sapiens, UniProt O75469)
T1 construct: expressed in transfected cells; host or cells: HepG2
T1 sequence (O75469 1-434): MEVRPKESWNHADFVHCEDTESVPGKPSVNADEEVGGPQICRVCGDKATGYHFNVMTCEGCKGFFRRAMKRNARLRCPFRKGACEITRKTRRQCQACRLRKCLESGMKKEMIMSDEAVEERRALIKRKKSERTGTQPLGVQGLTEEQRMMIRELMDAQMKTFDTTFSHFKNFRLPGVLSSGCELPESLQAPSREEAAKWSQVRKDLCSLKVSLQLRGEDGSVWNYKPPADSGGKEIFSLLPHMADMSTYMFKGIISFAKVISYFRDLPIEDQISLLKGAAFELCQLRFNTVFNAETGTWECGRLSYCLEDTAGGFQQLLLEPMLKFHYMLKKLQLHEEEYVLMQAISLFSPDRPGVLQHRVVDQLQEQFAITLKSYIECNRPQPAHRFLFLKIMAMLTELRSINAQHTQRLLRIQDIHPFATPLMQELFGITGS
Experiment: PXR transactivation assay (HepG2, CYP3A-Luc reporter)
Assay type: cell-based
Description: The cell culture medium used is DMEM. […] Charcoal/dextran treated fetal bovine serum (FBS) was purchased from Hyclone (Logan, Utah). HepG2 cells were obtained from ATCC (Manassas, Va.). Human PXR-pcDNA3 and luciferase reporter containing CYP3A4 promoter, CYP3A-Luc, were generated at Bristol-Myers Squibb. White tissue culture (TC)-surface 384-well plates were purchased from Perkin Elmer (Boston, Mass.). Luciferase substrate (Steady-Glo) was purchased from Promega (Madison, Wis.). Control compounds rifampicin, mifepristone, and sulfinpyrazone were purchased from Sigma (St. Louis, Mo.).
Culture of HepG2 cells is performed in T175 flasks using DMEM containing 10% FBS. The transfection mixture contains 1 μg/mL of PXR-pcDNA3 plasmid DNA, 20 μg/ml of Cyp3A-Luc plasmid DNA, 90 μL/mL of Lipofectamine 2000, and serum-free medium. After incubating at room temperature for 20 minutes, the transfection mixture (1 ml per flask) is applied to the cells in fresh medium (20 mL per flask), and flasks incubated at 37° C. (5% CO2) overnight.
The flasks are then tapped vigorously to break up cell aggregates. After the addition of 8 mL of DMEM containing 5% charcoal/dextran-treated FBS, the entire mixture is transferred to conical tubes. Cells are then centrifuged at 1000 rpm for 5 minutes. Cell pellets are resuspended to a final count of ˜7×10^6 cells/mL in freezing media (DMEM containing 20% serum and 10% DMSO). The cell suspension is aliquoted into 15-mL polypropylene tubes, 5 mL per tube. Cells are slowly frozen by placing in a Styrofoam-insulated container at −80° C. overnight. Vials are transferred to an Ultracold (−140° C.) freezer after 24 hours for long-term storage.
Vials of cryopreserved cells are thawed rapidly in a warm water bath for five minutes. Cells are pooled and diluted to 50 mL in a 50-mL conical vial. The thawed cells are centrifuged at 1500 rpm for 5 minutes to collect the cells and the supernatant discarded. Cells are then resuspended in fresh Media II (DMEM containing 5% charcoal/dextran-treated FBS, 1% Penicillin/Streptomycin, 100 μM Non-essential Amino Acids, 1 mM Sodium Pyruvate, and 2 mM L-Glutamine), counted using the Guava Cell Counter, and diluted to 1.6×10^5 cells/ml in the same media.
Fifty microliters of cell mixture is added to wells in columns 1-23 of white tissue-culture treated 384-well plates containing 0.25 μL of test compound dissolved in 100% DMSO. Fifty microliters of Media II is added to wells in column 24. The plates are incubated at 37° C. (5% CO2) for 24 hours, then 5 μL of Alamar Blue reagent (Trek Diagnostics, Cat #00-100) is added to each well. Plates are then incubated an additional two hours at 37° C., 5% CO2 and then one hour at room temperature. […] After the fluorescence is measured, 25 μL of luciferase substrate (Steady-Glo, Promega) is added to each well. The plates are incubated for fifteen minutes at room temperature, after which the luminescence is read on a PheraStar (BMG Labtech) plate reader.
Rifampicin (10 μM), a well-known agonist of PXR, is included in each plate as an internal standard and positive control. The data is then expressed as percent control (% CTRL), where the control signal is the signal from the 10 μM rifampicin and the blank signal is that from the DMSO vehicle. % CTRL=((Compound signal−Blank signal)/(Control signal−Blank signal))*100
The EC50 is defined as the concentration corresponding to half of the maximal response derived from the fitted 20-point curve as determined using a four-parameter logistic regression model. Additionally, compounds may also be reported as EC20 or EC60.

| Compound | PXR activation (in vitro screen, in words) | EC50 (HepG2, relative to 10 μM rifampicin) | PXR EC20 (reported as EC20) |
| --- | --- | --- | --- |
| CC(C)[C@@H](NC(=O)[C@@H]1CCC(F)(F)C1)C(=O)N1CC[C@](O)(c2ccc(Cl)cc2)[C@@](C)(O)C1 [Compound I, (R)—N—((R)-1-((3S,4S)-4-(4-chlorophenyl)-3,4-dihydroxy-3-methylpiperidin-1-yl)-3-methyl-1-oxobutan-2-yl)-3,3-difluorocyclopentanecarboxamide] | not a significant activator | > 50 µM |  |
| CC(C)COC(=O)N[C@@H](C(=O)N1CC[C@](O)(c2ccc(Cl)cc2)C(C)(C)C1)C(C)C [Example 1083] |  |  | 1.9 (EC20) μM |

Source: US8642622B2, “Piperidinyl compound as a modulator of chemokine receptor activity” (Bristol-Myers Squibb Company, priority 2010, dated 2014)
